The values below come from publication PMC11355918, “Inhibition of Soluble Epoxide Hydrolase by Cembranoid Diterpenes from Soft Coral Sinularia maxima: Enzyme Kinetics, Molecular Docking, and Molecular Dynamics” (Marine Drugs, 2024).

Where two headings read alike, the source gives them in different places.

The target in experiment [1] is T1, recombinant human sEH (Homo sapiens, UniProt P34913).
T1 sequence (P34913 1-555): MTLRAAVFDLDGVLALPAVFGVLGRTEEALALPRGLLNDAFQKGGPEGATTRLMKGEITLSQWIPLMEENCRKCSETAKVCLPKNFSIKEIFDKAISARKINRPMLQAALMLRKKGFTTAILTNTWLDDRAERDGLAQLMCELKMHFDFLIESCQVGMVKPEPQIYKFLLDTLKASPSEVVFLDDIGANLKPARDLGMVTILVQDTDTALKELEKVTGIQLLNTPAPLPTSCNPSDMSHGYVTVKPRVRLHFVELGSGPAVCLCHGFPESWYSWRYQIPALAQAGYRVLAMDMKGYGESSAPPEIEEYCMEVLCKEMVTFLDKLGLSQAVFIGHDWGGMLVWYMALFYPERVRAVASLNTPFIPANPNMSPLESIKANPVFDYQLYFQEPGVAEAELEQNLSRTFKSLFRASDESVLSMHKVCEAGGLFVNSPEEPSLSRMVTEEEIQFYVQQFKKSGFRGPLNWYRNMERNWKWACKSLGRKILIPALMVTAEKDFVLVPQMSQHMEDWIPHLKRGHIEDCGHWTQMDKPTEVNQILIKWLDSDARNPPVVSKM
Description: biochemical. The following applies: PHOME substrate, 37 °C, 60 min, mean ± SD (n = 3); read-out: IC50 (sEH inhibitory effect). How it is done:
Bis-Tris (B9754) was purchased from Sigma-Aldrich (St. Louis, MO, USA).
The sEH inhibition assay was performed as described in a previous study, with slight modifications. In 96-well plates, separate mixtures were prepared for each test compound, containing 130 µL of sEH in Bis-Tris buffer with HCl (pH 7.0, containing 0.1% bovine serum albumin) and 20 µL of the test compound (10 mM, diluted in DMSO). Subsequently, 50 µL of PHOME, which serves as a substrate, was added to each well. The mixtures were then incubated at 37 °C, and fluorescence was monitored using the VICTOR Nivo multimode plate reader (PerkinElmer, Waltham, MA, USA) for 60 min, with excitation and emission wavelengths of 330 nm and 460 nm, respectively. […] The inhibitory activity was calculated using the following equation:Inhibitory activity (%) = [1 − (ΔI/ΔC)] × 100%, where ΔI and ΔC are the fluorescence readings of the inhibitor and the control after 60 min, respectively. IC50 values were calculated using SigmaPlot 10.0 (Systat Software, CA, USA). Data are presented as means ± standard deviations from three independent experiments (n = 3, p < 0.05).

For experiment [2], the target named is T1, recombinant human sEH. Description: Enzyme kinetics of sEH inhibition (Lineweaver-Burk and Dixon plots). It is filed as biochemical. Particulars: for Ki: Determined using Dixon plots, read-out: Ki (inhibition constant); for Inhibition Type: Determined using Lineweaver-Burk plots, PHOME 0.1-0.8 mM. On the procedure:
The inhibition type of a compound provides insight into how it interacts with the enzyme. […] PHOME concentrations of 0.1, 0.2, 0.4, and 0.8 mM were used, along with compound 3 concentrations of 0, 15, 30, 60, and 90 µM, and compound 9 concentrations of 0, 20, 40, 60, and 100 µM. In the Lineweaver–Burk method, competitive and non-competitive inhibition is indicated by a series of straight lines intersecting at the same point on the y- and x-axes, respectively. […] In most cases, this implies that these inhibitors bind to an allosteric site on the enzyme rather than the active site, thereby preventing the enzyme from functioning regardless of the substrate concentration.
The inhibition constant (Ki) is a measure of the binding affinity of the inhibitor for the enzyme, with a lower value indicating a stronger affinity. Dixon plots were used to determine the Ki values for the compounds.
Enzyme kinetics were analyzed using Lineweaver–Burk and Dixon plots. This approach helped determine the mode of inhibition and the inhibition constant (Ki) at various substrate concentrations, both in the absence (0 μM) and presence of inhibitors. Data were plotted using Microsoft Excel 365.

The next experiment concerns sEH. Particulars: cited from earlier work.
The mark [3] stands for this setting: protostane-type triterpenoids from Alisma orientale, read-out: IC50 (sEH inhibition).

Turning to `C=C(C)[C@H]1C/C=C(\C(=O)OC)CC(=O)C[C@@](C)(O)[C@@H](O)C2=CC(C(=O)OC)=C(C1)O2` [Compound 1, sinumaximol A], at recombinant human sEH [1], the IC50 is more than 100 µM.
For `C=C(C)C1CCC23OC2C(CC(C)(O)C=C2C=C(C(=O)OC)C(OC)(C1)O2)OC3=O` (stereo not drawn) [Compound 3, sinumaximol C], the IC50 at recombinant human sEH [1] turned out to be 70.7 ± 1.44 µM. For the same compound, on recombinant human sEH [2], the Ki came to 59.4 µM and the “Inhibition Type” value is “Non-competitive”.
In the case of `C=C(C)[C@H]1CCC2=C[C@@H](C[C@@]3(C)CC(=O)[C@H](CC(=O)C1)O3)OC2=O` [Compound 10, 5-epinorcembrene], the IC50 on recombinant human sEH [1] is more than 100 µM.
Take 3β-hydroxy-25-anhydro-alisol F: in the experiment on sEH (setting [3]), the IC50 is 10.1 ± 1.12 µM.
Consider `C[C@@H]1CC[C@]2(C(=O)O)CC[C@]3(C)C(=CC[C@@H]4[C@@]5(C)CC(=O)[C@H](O)C(C)(C)[C@@H]5CC[C@]43C)[C@@H]2[C@]1(C)O` [2-oxopomolic acid], for which, in the experiment with sEH (triterpenoid from Malus domestica, read-out: IC50 (sEH inhibitory activity)), the IC50 was 11.4 ± 2.7 µM.
On to `C=C1CCC2(O)C(=C)COC2C=C(C)CCC2OC2(C)CCC1O` (stereo not drawn) [Compound 4, sinumaximol D], for which the IC50 on recombinant human sEH [1] was more than 100 µM.
In the case of `C=C1CC=C2C(C=C(C)CCC3OC3(C)CCC1O)OCC2(C)O` (stereo not drawn) [Compound 5, sinumaximol E], on recombinant human sEH [1], the IC50 was more than 100 µM.
On to `C=C(C)[C@@H](O)[C@@H](O)C[C@@H](C)C1=C2CC[C@H]3[C@@]4(C)CCC(=O)C(C)(C)[C@@H]4CC[C@]3(C)[C@@]2(C)CC1` [11-deoxy-25-anhydro alisol E], for which the IC50 with sEH (protostane-type triterpenoids, read-out: IC50 (sEH inhibitory effects)) is 5.94 ± 0.54 µM.
For `C=C(C)C1CCC2=CC(CC(C)(O)C(O)C3=CC(C(=O)OC)=C(C1)O3)OC2=O` (stereo not drawn) [Compound 2, sinumaximol B], the IC50 at recombinant human sEH [1] is more than 100 µM.
Turning to `CC1=CC2OC(=O)C(C)=C2CCC(C)(O)C=CCC(C)(O)C(O)CC1` (stereo not drawn) [Compound 7, sinumaximol G], on recombinant human sEH [1], the IC50 is more than 100 µM.
For the compound `C=C1CCC2=C(C)COC2C=C(C)CCC(O)C(C)(O)CCC1O` (stereo not drawn) [Compound 8, sinumaximol H], the IC50 at recombinant human sEH [1] is more than 100 µM.
With `CC1=CC2OCC(C)(O)C2=CCC(C)(O)C=CCC2(C)OC2CC1` (stereo not drawn) [Compound 6, sinumaximol F], on recombinant human sEH [1], the IC50 is more than 100 µM.
With 3β-hydroxy-alisol G, the IC50 with sEH (setting [3]) was 30.4 ± 2.65 µM.
Take `C=C(C)C1CC=C(C(=O)OC)CC(=O)CC(C)(O)C=C2C=C(C(=O)OC)C(OC)(C1)O2` (stereo not drawn) [Compound 9, sethukarailin]: the IC50 at recombinant human sEH [1] is 78.8 ± 2.26 µM. In addition, at recombinant human sEH [2], the Ki worked out at 55 µM and the “Inhibition Type” value is on record as “Non-competitive”.

Usually IC50 stands for the point on the concentration scale where inhibition reaches its midpoint. As usually defined, the Ki is the dissociation constant of the complex between target and ligand, obtained from inhibition or displacement.
